According to patent publication US10168323B2, “Compositions and methods for capture of cellular targets of bioactive agents” (Promega Corporation, priority 2013, dated 2019):
Several values for one entry are separate records, joined by “and”; a condition that tells them apart may be missing. Equal entries are not always repeated.

What was measured:
[1] = molecular target: T1, NANOLUC-p38 alpha fusion protein (Homo sapiens, UniProt Q16539); assay: Pull-down and release of NANOLUC-p38 alpha fusion from HEK293 cell lysates; assay type: binding
T1 construct: NANOLUC luciferase (reporter fusion partner); expressed in transfected cells; host or cells: HEK293
T1 sequence (Q16539 whole entry, the tested form may be a part): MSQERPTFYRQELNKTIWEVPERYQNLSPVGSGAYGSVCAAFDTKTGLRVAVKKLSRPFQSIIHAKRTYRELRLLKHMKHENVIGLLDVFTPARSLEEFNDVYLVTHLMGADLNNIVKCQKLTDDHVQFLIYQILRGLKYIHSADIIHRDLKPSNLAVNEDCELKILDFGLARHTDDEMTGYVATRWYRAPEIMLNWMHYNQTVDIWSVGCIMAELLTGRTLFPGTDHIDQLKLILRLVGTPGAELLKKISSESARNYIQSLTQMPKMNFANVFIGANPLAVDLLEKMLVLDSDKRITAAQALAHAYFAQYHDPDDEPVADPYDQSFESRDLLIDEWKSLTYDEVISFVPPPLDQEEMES
Procedure: In this example, BIRB-chloroalkane conjugate (PBI-4834) and BIRB chloroalkane conjugate containing a cleavable linker (PBI-5131) were utilized to pull-down a NANOLUC-p38 alpha fusion protein from HEK293 cell lysates. Lysate of cells expressing NANOLUC-p38 fusion were incubated with 1 μM PBI-4834 or PBI-5131 (final concentration) while control lysates were not treated with the conjugated drugs. Following equilibration binding for 2 h, the lysates were transferred to wells of a 96-well plate containing 0.5 μl settled paramagnetic HALOTAG protein beads and incubated with shaking for 45 min. Following binding the unbound fraction was removed, the HALOTAG protein paramagnetic beads were washed 3×, and the captured NANLUC-p38 alpha fusion specifically released from the beads by one of two methods: • 1. 150 μM unconjugated BIRB796 was used to compete for binding with the conjugated BIRB796 on the NANOLUC-p38 alpha fusion for 60 min. • 2. The NANOLUC-p38 alpha fusion was rapidly released through 10 min chemical cleavage of the chloroalkane linker with 10 mM of sodium hydrosulfite (PBI-5131 is a chloroalkane cleavable linker). The released NANOLUC-p38 alpha (+PBI4834/+PBI5131) and control (-drug) were detected with NANOGLO luciferase detection reagent.

p38 alpha = molecular target: T2, p38 alpha (Homo sapiens, UniProt Q16539); assay: Endogenous target pull-down from HEK293 cells (western blot, mass spec); assay type: cell-based; settings: 10 uM conjugate, western blot and mass spec
T2 construct: isolate, e.g., pull-down, endogenous targets from cells; endogenous in cells; host or cells: HEK293
T2 sequence (Q16539 whole entry): as the sequence (Q16539 whole entry, the tested form may be a part) above
Procedure: HEK293 cells were plated in a 6 well plate (2.5×10^5 cells). 48 hours post plating, a final concentration of 10 uM of BIRB-chloroalkane (PBI-4834) was added to 2 wells while control cells were not treated with the drug conjugate. Following equilibration binding for 2 h, the media was removed, and the cells were quickly washed with PBS and lysed in detergent-based lysis buffer for 10 min. Cell lysates were then transferred to an EPPENDORF tube containing 12.5 ul of settled paramagnetic HALOTAG protein beads and incubated with shaking for 15 min. Following binding, the unbound fraction was removed, the HALOTAG protein paramagnetic beads washed 3×, and the captured targets specifically released from the beads by competition with 150 μM unconjugated BIRB796 for 60 min. The released targets were subjected to mass spec analysis as well as western blot analysis using an anti-p38 alpha antibody (Abcam).

[2] = molecular target: T3, NANOLUC-p38 fusion protein (Homo sapiens, UniProt Q16539); assay: Pull-down of NANOLUC-p38 fusion from cell lysates with HALOTAG protein dimer on HALOLINK plates; assay type: binding; settings: p38-Nluc expressing cells treated with drug, listed as BIRB-chloroalkane
T3 construct: NANOLUC luciferase (reporter fusion partner); expressed in transfected cells
T3 sequence (Q16539 whole entry, the tested form may be a part): as above
Procedure: Different amounts of a HALOTAG protein dimer (dimer of SEQ ID NO: 1) were added to cell lysates expressing a NANOLUC-p38 fusion protein (e.g., reporter/cellular-target fusion) which have or have not been treated with BIRB-chloroalkane (e.g., bioactive-agent/capture-ligand conjugate) as shown in Table 1. After 15 minute incubation, the samples were placed into wells of white, 96-well polystyrene plates activated with HALOTAG ligand (HALOLINK plates; Promega Corp.) and further incubated for 45 minutes. The wells were then washed PBS+0.05% Tween-20 (PBST). Then, 50 ul PBS followed by 50 ul of NANOGLO luciferase detection reagent was added to the wells, and luminescence measured.
Table 2 indicates differences in luminescence in samples with and without HALOTAG dimer (e.g., dimer of SEQ ID NO: 1) that indicate specific pull-down of the NANOLUC-p38 fusion protein.

[3] = molecular target: T1, NANOLUC-p38 alpha fusion protein; assay: Pull-down of NANOLUC-p38 alpha fusion from living HEK293 cells onto HALOTAG protein beads; assay type: cell-based
Procedure: In this example, a BIRB-chloroalkane conjugate (PBI-4834, see below) was utilized to pull down a NANOLUC-p38 alpha fusion protein from living cells.
HEK293 cells in wells of a 96-well plate were transfected using PEI with plasmid DNA encoding NANOLUC-p38 fusion. Twenty-four hours post-transfection, cells were incubated with a final concentration of 10 μM PBI-4834 while control cells were not treated with the conjugated drug. Following equilibration binding of 2 hours, the media was removed, cells were quickly washed with PBS and lysed in a detergent-based lysis buffer for 10 minutes. The cell lysates were then transferred to wells of a 96-well plate which contained 0.5 μl settled paramagnetic HALOTAG protein beads (Promega Corp.) and incubated with shaking for 15-45 minutes. Following binding, the unbound fraction was removed and the HALOTAG protein paramagnetic beads were washed. 150 uM unconjugated BIRB796 was then added and the captured NANOLUC-p38 alpha fusion was specifically released from the beads by competition with the unconjugated BIRB796 for 60 minutes. The released NANOLUC-p38 alpha fusion protein (+PBI-4834) and control (−PBI4834) was detected using NANOGLO luciferase reagent (Promega Corp.).

NANOLUC-DHFR fusion = molecular target: T4, NANOLUC-DHFR fusion (Homo sapiens, UniProt P00374); assay: Binding affinity to DHFR in live cells using BRET; assay type: cell-based; settings: live HEK293 cells, in the presence of 1 μM PBI-4890
T4 construct: NANOLUC luciferase (reporter fusion partner); expressed in transfected cells; host or cells: HEK293
T4 sequence (P00374 1-187): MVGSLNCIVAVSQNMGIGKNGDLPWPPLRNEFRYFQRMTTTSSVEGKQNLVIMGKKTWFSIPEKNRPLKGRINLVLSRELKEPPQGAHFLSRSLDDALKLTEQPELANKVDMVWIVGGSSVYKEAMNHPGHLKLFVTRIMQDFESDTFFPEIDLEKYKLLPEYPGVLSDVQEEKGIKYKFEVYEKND
Procedure: Binding affinity to DHFR in live cells was tested using BRET. HEK293 cells in wells of a 96-well plate were transfected using PEI with plasmid DNA encoding a NANOLUC-DHFR fusion. The DNA was diluted 1:50 with a promoterless carrier DNA plasmid (PSI) to a final concentration of 80 ng total DNA per well. Twenty-four hours post-transfection, cells were serum starved for additional 24 hours and then treated with serially diluted PBI-4848 or PBI-5015 in the presence of 1 μM PBI-4890 (TOM-methotrexate derivative). After two hours of equilibration binding, furimazine (a coelenterazine derivative; Promega Corp.) was added to a final concentration of 20 μM, and BRET measured on a Varioskan luminometer.

[4] = molecular target: T5, NANOLUC:DHFR (Nluc:DHFR) fusion (Homo sapiens, UniProt P00374); assay: Pull-down of NANOLUC:DHFR from live HEK293 cells onto HALOTAG protein beads; assay type: cell-based; settings: 10 μM conjugate, release with 150 μM methotrexate
T5 construct: NANOLUC luciferase (reporter fusion partner); expressed in transfected cells; host or cells: HEK293
T5 sequence (P00374 1-187): T4 sequence (P00374 1-187)
Procedure: The DNA was diluted 1:50 with a promoterless carrier DNA plasmid (PSI) to a final concentration of 80 ng total DNA per well. Twenty-four hours post-transfection, cells were serum starved for additional 24 h and then incubated with 10 μM PBI-4848 or PBI-5015 while control cells were not treated with the conjugated drug. Following equilibration binding of 2 h, the media was removed, and the cells quickly washed with PBS and lysed in detergent-based lysis buffer for 10 min. Cell lysates were then transferred to wells of a 96-well plate containing 0.5 μl settled paramagnetic HALOTAG protein beads and incubated with shaking for 45 min. Following binding, the unbound fraction was removed, the HALOTAG protein paramagnetic beads washed, 150 μM unconjugated methotrexate added, and the captured NANOLUC:DHFR specifically released from the beads by competition with the unconjugated methotrexate for 60 min. The released NANOLUC:DHFR (+PBI5015 or +PBI 4848) and control samples were detected by NANOGLO luciferase detection reagent.

DHFR = molecular target: T6, DHFR (Homo sapiens, UniProt P00374); assay: Endogenous target pull-down from HEK293 cells (western blot, mass spec); assay type: cell-based; settings: 10 uM conjugate, western blot and mass spec
T6 construct: isolate, e.g., pull-down, endogenous targets from cells; endogenous in cells; host or cells: HEK293
T6 sequence (P00374 1-187): T4 sequence (P00374 1-187)
Procedure: HEK293 cells were plated into wells of a 6-well plate (2.5×10^5 cells/well). 48 hours post plating, a final concentration of 10 uM of Methotrexate chloroalkane (PBI-5015) was added to 2 wells while control cells were not treated with the drug conjugate. Following equilibration binding for 2 h, the media was removed, and the cells quickly washed with PBS and lysed in detergent-based lysis buffer for 10 min. Cell lysates were then transferred to an Eppendorf® tube containing 12.5 ul of settled paramagnetic HALOTAG protein beads and incubated with shaking for 15 min. Following binding, the unbound fraction was removed, the HALOTAG paramagnetic beads washed 3×, and the captured targets specifically released from the beads by competition with 150 μM unconjugated methotrexate for 60 mins. The released targets were subjected to mass spec analysis as well as western blot analysis using an anti-DHFR antibody (Sigma). […] Furthermore, although the expression level of DHFR in the cells is very low (not detected in lysate by western blot analysis), it was still efficiently captured as indicated by the western blot analysis (FIG. 8A) and mass spec analysis (FIG. 8B).

CC(C)(C)c1cc(NC(=O)Nc2ccccc2)n(-c2cccc(CNC(=O)CNC(=O)OCCOCCOCCOC(=O)NCCOCCOCCCCCCCl)c2)n1 [PBI-4834]
pull-down efficiency of NANOLUC-p38 alpha ([1]; 1 μM conjugate, HEK293 cell lysate): significantly higher | pull-down of endogenous p38 alpha (p38 alpha): specifically isolated | luminescence ([2]; 2 ug/well HALOTAG dimer): 236900 and 397958 and 431167 | luminescence ([2]; 6 ug/well HALOTAG dimer): 401205 and 538956 and 596504 | luminescence ([2]; 8 ug/well HALOTAG dimer): 395510 and 526903 and 610628 | luminescence ([2]; No HALOTAG dimer): 278085 and 275690 and 443682 | expressed fusion specifically captured to the beads ([3]; 10 μM conjugate, HEK293 cells, release with 150 uM BIRB796): 1% | signal over background of capture on HALOTAG protein beads ([3]; within 15 minutes of capture): high signal over background

CN(Cc1cnc2nc(N)nc(N)c2n1)c1ccc(C(=O)NC(CCC(=O)NCCOCCOCCCCCCCl)C(=O)O)cc1 (stereo not shown) [PBI-4848]
affinity to DHFR (dose-response BRET curves) (NANOLUC-DHFR fusion): higher affinity

CN(Cc1cnc2nc(N)nc(N)c2n1)c1ccc(C(=O)NC(CCC(=O)NCCCCCNC(=O)OCCOCCOCCOC(=O)NCCOCCOCCCCCCCl)C(=O)O)cc1 (stereo not shown) [PBI-5015]
pull-down of Nluc:DHFR fusion [4]: efficiently pulled down | affinity to DHFR (dose-response BRET curves) (NANOLUC-DHFR fusion): lower affinity | pull-down of endogenous DHFR (DHFR): specifically isolated

CC(C)(C)c1cc(NC(=O)Nc2ccccc2)n(-c2cccc(CNC(=O)CCCCCOc3ccc(/N=N/c4ccc(C(=O)NCCOCCOCCCCCCCl)cc4)c(O)c3)c2)n1 [PBI-5131]
specific capture after rapid release using chemical cleavage ([1]; 10 min cleavage with 10 mM sodium hydrosulfite): significant increase in specific capture
